Reference: patent publication US20250360092A1, “Carotenoid-fortified Yogurt and Methods For Preparing The Same” (Maravilla, LLC, priority 2024, published 2025)

Assay type: physicochemical
Details: start of the thirty-five-day storage at 4° C.
Experimental: Lutein and Zeaxanthin Stability Over Shelf Life. […] The stability may be influenced by the way lutein was added to the yogurt. When lutein is introduced post-fermentation via stirring, it tends to degrade in a concentration-dependent manner. […] This phenomenon may be attributed to the consumption of oxygen in milk by Lactobacillus bulgaricus during fermentation. […] The samplings were weighted into […] falcon tubes and 4 milliliters of tetrahydrofuran containing 0.1% was added to each sampling. The mixtures were vortexed for 30 seconds and centrifuged at 3500 grams for 5 minute at 20° C. […] The three extracts were then pooled and dried in the vacuum centrifuge at less than 30° C. and the dry residue was resuspended in 10 milliliters of acetone and read in the spectrophotometer. […] Carotenoid profiling, relative purity and quantification were carried out in a HPLC 1260 Infinity Series (Agilent Technologies, Santa Clara, CA, USA), equipped with a diode array detector, quaternary pump, degasser, thermostatically-controlled column compartment, and a thermostatically-controlled autosampler. […] For carotenoid quantification in human serum, 100 microliters of a sampling were injected. […] Differences in serum carotenoid concentration at each time point were assessed by paired t-test.

starting concentration in the lutein-fortified yogurt sample [mg/100 g]	SMILES
14.60±0.41	CC1=C[C@H](O)CC(C)(C)[C@H]1/C=C/C(C)=C/C=C/C(C)=C/C=C/C=C(C)/C=C/C=C(C)/C=C/C1=C(C)C[C@@H](O)CC1(C)C [Lutein, lutein]
0.71±0.02	CC1=C(/C=C/C(C)=C/C=C/C(C)=C/C=C/C=C(C)/C=C/C=C(C)/C=C/C2=C(C)C[C@@H](O)CC2(C)C)C(C)(C)C[C@H](O)C1 [Zeaxanthin, zeaxanthin]
